# In US9695163B2, “Thiazole orexin receptor antagonists” (MERCK SHARP & DOHME CORP., priority 2013, dated 2017):
# pIC50: −log10 of the molar value.
# Columns and labels:
# [1] = molecular target: human orexin-1 receptor (hOX1R) (Homo sapiens (Human), UniProt O43613); experiment: FLIPR Ca2+ Flux Assay, CHO cells expressing human orexin-1 receptor; assay type: cell-based; conditions: agonist Ala-6,12 human orexin-A 70 pM
# Text: The utility of the compounds in accordance with the present invention as orexin receptor OX1R and/or OX2R antagonists may be readily determined without undue experimentation by methodology well known in the art, including the “FLIPR Ca^2+ Flux Assay” (Okumura et al., Biochem. Biophys. Res. Comm. 2001, 280:976-981). Briefly, for intracellular calcium measurements, Chinese hamster ovary (CHO) cells expressing the orexin-1 receptor (e.g., rat or human) or the orexin-2 receptor (e.g., rat or human), are grown in Iscove's modified DMEM containing 2 mM L-glutamine, […], 1% hypoxanthine-thymidine supplement, 100 U/ml penicillin, 100 μg/ml streptomycin and 10% heat-inactivated fetal calf serum (FCS). The cells are seeded at approximately 20,000 cells per well into 384-well clear bottom sterile plates coated with poly-D-lysine. The seeded plates are incubated overnight at 37° C. and 5% CO2. Human ala-6,12 orexin-A can be used as the agonist and prepared as a 1 mM stock solution in 1% bovine serum albumin (BSA) and diluted in assay buffer (HBSS containing 20 mM HEPES, 0.1% BSA and 2.5 mM probenecid, pH7.4) for use in the assay at a final concentration of 70 pM. Test compounds are prepared as 10 mM stock solution in DMSO, then diluted in 384-well plates, first in DMSO, then in assay buffer. On the day of the assay, cells are washed 3 times with 100 μl assay buffer and then incubated for 60 minutes (37° C., 5% CO2) in 60 μl assay buffer containing 1 μM Fluo-4 AM ester, 0.02% pluronic acid, and 1% BSA. The dye loading solution is then aspirated and cells are washed 3 times with 100 μl assay buffer. 30 μl of that same buffer is left in each well. Within the Fluorescent Imaging Plate Reader (FLIPR, Molecular Devices), test compounds are added to the plate in a volume of 25 μl, incubated for 5 minutes, and then 25 μl of agonist is added. Fluorescence is measured for each well at 1 second intervals for 5 minutes, and the height of each fluorescence peak is compared to the height of the fluorescence peak induced by 70 pM of agonist ala-6,12 orexin-A with buffer in place of test compound. IC50 value for the test compound is determined to be the concentration of compound needed to inhibit 50% of the agonist response. Alternatively, compound potency can be assessed using a radioligand binding assay (described in Bergman et. al., Bioorg. Med. Chem. Lett. 2008, 18:1425-1430) in which the inhibition constant (Ki) is determined in membranes prepared from CHO cells expressing either the OX1 or OX2 receptor. The intrinsic orexin receptor antagonist activity of a compound of the present invention may be determined by these assays.
# [2] = molecular target: human orexin-2 receptor (hOX2R) (Homo sapiens (Human), UniProt O43614); experiment: FLIPR Ca2+ Flux Assay, CHO cells expressing human orexin-2 receptor; assay type: cell-based; conditions: agonist Ala-6,12 human orexin-A 70 pM
# human orexin-2 receptor (hOX2R), sequence (O43614 whole entry): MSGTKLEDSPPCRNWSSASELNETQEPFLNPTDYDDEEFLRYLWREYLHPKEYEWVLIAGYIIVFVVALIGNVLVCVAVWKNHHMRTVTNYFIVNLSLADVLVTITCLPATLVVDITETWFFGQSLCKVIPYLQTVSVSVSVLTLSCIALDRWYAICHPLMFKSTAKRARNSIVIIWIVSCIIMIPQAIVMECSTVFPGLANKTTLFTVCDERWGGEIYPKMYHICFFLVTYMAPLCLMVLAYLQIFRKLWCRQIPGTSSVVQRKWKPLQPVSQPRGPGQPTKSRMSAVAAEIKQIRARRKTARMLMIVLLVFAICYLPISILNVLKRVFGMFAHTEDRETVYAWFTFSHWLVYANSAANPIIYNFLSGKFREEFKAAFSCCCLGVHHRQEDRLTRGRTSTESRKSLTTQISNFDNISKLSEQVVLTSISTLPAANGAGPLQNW
# Experimental: Briefly, for intracellular calcium measurements, Chinese hamster ovary (CHO) cells expressing the orexin-1 receptor (e.g., rat or human) or the orexin-2 receptor (e.g., rat or human), are grown in Iscove's modified DMEM containing 2 mM L-glutamine, […], 1% hypoxanthine-thymidine supplement, 100 U/ml penicillin, 100 μg/ml streptomycin and 10% heat-inactivated fetal calf serum (FCS). The cells are seeded at approximately 20,000 cells per well into 384-well clear bottom sterile plates coated with poly-D-lysine. The seeded plates are incubated overnight at 37° C. and 5% CO2. Human ala-6,12 orexin-A can be used as the agonist and prepared as a 1 mM stock solution in 1% bovine serum albumin (BSA) and diluted in assay buffer (HBSS containing 20 mM HEPES, 0.1% BSA and 2.5 mM probenecid, pH7.4) for use in the assay at a final concentration of 70 pM. Test compounds are prepared as 10 mM stock solution in DMSO, then diluted in 384-well plates, first in DMSO, then in assay buffer. On the day of the assay, cells are washed 3 times with 100 μl assay buffer and then incubated for 60 minutes (37° C., 5% CO2) in 60 μl assay buffer containing 1 μM Fluo-4 AM ester, 0.02% pluronic acid, and 1% BSA. The dye loading solution is then aspirated and cells are washed 3 times with 100 μl assay buffer. 30 μl of that same buffer is left in each well. Within the Fluorescent Imaging Plate Reader (FLIPR, Molecular Devices), test compounds are added to the plate in a volume of 25 μl, incubated for 5 minutes, and then 25 μl of agonist is added. Fluorescence is measured for each well at 1 second intervals for 5 minutes, and the height of each fluorescence peak is compared to the height of the fluorescence peak induced by 70 pM of agonist ala-6,12 orexin-A with buffer in place of test compound. IC50 value for the test compound is determined to be the concentration of compound needed to inhibit 50% of the agonist response. Alternatively, compound potency can be assessed using a radioligand binding assay (described in Bergman et. al., Bioorg. Med. Chem. Lett. 2008, 18:1425-1430) in which the inhibition constant (Ki) is determined in membranes prepared from CHO cells expressing either the OX1 or OX2 receptor. The intrinsic orexin receptor antagonist activity of a compound of the present invention may be determined by these assays. […]
# human orexin-1 receptor (hOX1R), sequence (O43613 whole entry): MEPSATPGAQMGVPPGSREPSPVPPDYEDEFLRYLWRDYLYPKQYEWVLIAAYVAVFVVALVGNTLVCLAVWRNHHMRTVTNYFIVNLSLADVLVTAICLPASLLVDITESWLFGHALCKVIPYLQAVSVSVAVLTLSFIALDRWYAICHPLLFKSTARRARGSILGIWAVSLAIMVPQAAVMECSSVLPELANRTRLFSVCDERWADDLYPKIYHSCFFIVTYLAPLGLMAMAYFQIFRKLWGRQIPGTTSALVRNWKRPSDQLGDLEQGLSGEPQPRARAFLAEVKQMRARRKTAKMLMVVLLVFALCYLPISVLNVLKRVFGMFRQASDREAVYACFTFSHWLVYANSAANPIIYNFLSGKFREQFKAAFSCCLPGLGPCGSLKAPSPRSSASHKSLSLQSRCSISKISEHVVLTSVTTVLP
SMILES,pIC50 [1],pIC50 [2]
"CCOC(=O)c1cnc([C@@H]2CC[C@@H](C)N(C(=O)c3ccccc3-n3nccn3)C2)s1 [Example 1, Ethyl 2-((3R,6R)-1-(2-(2H-1,2,3-triazol-2-yl)benzoyl)-6-methylpiperidin-3-yl)thiazole-5-carboxylate]",< 5.00,5.82
"C[C@@H]1CC[C@@H](c2ncc(C(C)(C)O)s2)CN1C(=O)c1ccccc1-n1nccn1 [Example 2, (2-(2H-1,2,3-Triazol-2-yl)phenyl)((2R,5R)-5-(5-(2-hydroxypropan-2-yl)thiazol-2-yl)-2-methylpiperidin-1-yl)methanone]",< 5.00,7.17
"C[C@@H]1CC[C@H](c2ncc(C(C)(C)O)s2)CN1C(=O)c1ccccc1-n1nccn1 [Example 3, (2-(2H-1,2,3-Triazol-2-yl)phenyl)((2R,5S)-5-(5-(2-hydroxypropan-2-yl)thiazol-2-yl)-2-methylpiperidin-1-yl)methanone]",< 5.00,5.58
"C[C@@H]1CC[C@@H](c2cnc(C(C)(C)O)s2)CN1C(=O)c1ccccc1-n1nccn1 [Example 4, (2-(2H-1,2,3-triazol-2-yl)phenyl)((2R,5R)-5-(2-(2-hydroxypropan-2-yl)thiazol-5-yl)-2-methylpiperidin-1-yl)methanone]",< 5.00,7.30
C[C@@H]1CC[C@@H](c2nc(C(C)(C)O)cs2)CN1C(=O)c1ccccc1-n1nccn1 [Example 5],5.65,7.77
"C[C@@H]1CC[C@@H](c2nc([C@H](O)C(F)(F)F)cs2)CN1C(=O)c1ccccc1-n1nccn1 [Example 6, (2-(2H-1,2,3-triazol-2-yl)phenyl)((2R,5R)-2-methyl-5-(4-((S)-2,2,2-trifluoro-1-hydroxyethyl)thiazol-2-yl)piperidin-1-yl)methanone]",5.00,6.78
"C[C@@H]1CC[C@@H](c2nc([C@@H](O)C(F)(F)F)cs2)CN1C(=O)c1ccccc1-n1nccn1 [Example 7, (2-(2H-1,2,3-triazol-2-yl)phenyl)((2R,5R)-2-methyl-5-(4-((R)-2,2,2-trifluoro-1-hydroxyethyl)thiazol-2-yl)piperidin-1-yl)methanone]",6.44,7.82
C[C@@H]1CC[C@@H](c2nc([C@@H](O)C(F)F)cs2)CN1C(=O)c1ccccc1-n1nccn1 [Example 8],< 5.00,6.88
C[C@@H]1CC[C@@H](c2nc([C@H](O)C(F)F)cs2)CN1C(=O)c1ccccc1-n1nccn1 [Example 9],6.28,8.03
"C[C@@H]1CC[C@@H](c2nc(C(C)(C)O)cs2)CN1C(=O)c1ccsc1-n1nccn1 [Example 10, (2-(2H-1,2,3-triazol-2-yl)thiophen-3-yl)((2R,5R)-5-(4-(2-hydroxypropan-2-yl)thiazol-2-yl)-2-methylpiperidin-1-yl)methanone]",5.13,7.72
"C[C@@H]1CC[C@@H](c2nc(C(C)(C)O)cs2)CN1C(=O)c1ccccc1C1(C#N)CC1 [Example 11, 1-(2-((2R,5R)-5-(4-(2-Hydroxypropan-2-yl)thiazol-2-yl)-2-methylpiperidine-1-carbonyl)phenyl)cyclopropanecarbonitrile]",6.02,7.82
"COC(=O)c1ccccc1C(=O)N1C[C@H](c2nc(C(C)(C)O)cs2)CC[C@H]1C [Example 12, Methyl 2-((2R,5R)-5-(4-(2-hydroxypropan-2-yl)thiazol-2-yl)-2-methylpiperidine-1-carbonyl)benzoate]",< 5.00,7.36
"C[C@@H]1CC[C@@H](c2nc(C(C)(C)O)cs2)CN1C(=O)c1ccc(F)cc1-n1nccn1 [Example 13, (4-fluoro-2-(2H-1,2,3-triazol-2-yl)phenyl)((2R,5R)-5-(4-(2-hydroxypropan-2-yl)thiazol-2-yl)-2-methylpiperidin-1-yl)methanone]",5.65,7.72
"C[C@@H]1CC[C@@H](c2nc(C(C)(C)O)cs2)CN1C(=O)c1ccccc1-n1ncnn1 [Example 14, (2-(2H-Tetrazol-2-yl)phenyl)((2R,5R)-5-(4-(2-hydroxypropan-2-yl)thiazol-2-yl)-2-methylpiperidin-1-yl)methanone]",< 5.00,7.68
"C[C@@H]1CC[C@@H](c2nc(C(C)(C)O)cs2)CN1C(=O)c1cscc1-n1nccn1 [Example 15, (4-(2H-1,2,3-Triazol-2-yl)thiophen-3-yl)((2R,5R)-5-(4-(2-hydroxypropan-2-yl)thiazol-2-yl)-2-methylpiperidin-1-yl)methanone]",< 5.00,7.80
"C[C@@H]1CC[C@@H](c2nc(C(C)(C)O)cs2)CN1C(=O)c1cscc1-c1ncccn1 [Example 16, ((2R,5R)-5-(4-(2-hydroxypropan-2-yl)thiazol-2-yl)-2-methylpiperidin-1-yl)(4-(pyrimidin-2-yl)thiophen-3-yl)methanone]",6.00,7.60
"C[C@@H]1CC[C@@H](c2nc(C(C)(C)O)cs2)CN1C(=O)c1ccccc1-c1ncccn1 [Example 17, ((2R,5R)-5-(4-(2-Hydroxypropan-2-yl)thiazol-2-yl)-2-methylpiperidin-1-yl)(2-(pyrimidin-2-yl)phenyl)methanone]",5.26,7.54
"C[C@@H]1CC[C@@H](c2nc(C(C)(C)O)cs2)CN1C(=O)c1ccsc1-c1ncccn1 [Example 18, ((2R,5R)-5-(4-(2-Hydroxypropan-2-yl)thiazol-2-yl)-2-methylpiperidin-1-yl)(2-(pyrimidin-2-yl)thiophen-3-yl)methanone]",< 5.00,6.94
"Cc1sc([C@@H]2CC[C@@H](C)N(C(=O)c3ccccc3-n3nccn3)C2)nc1C(C)(C)O [Example 19, (2-(2H-1,2,3-Triazol-2-yl)phenyl)((2R,5R)-5-(4-(2-hydroxypropan-2-yl)-5-methylthiazol-2-yl)-2-methylpiperidin-1-yl)methanone]",6.48,7.85
"Cc1sc([C@@H]2CC[C@@H](C)N(C(=O)c3ccsc3-n3nccn3)C2)nc1C(C)(C)O [Example 20, (2-(2H-1,2,3-triazol-2-yl)thiophen-3-yl)((2R,5R)-5-(4-(2-hydroxypropan-2-yl)-5-methylthiazol-2-yl)-2-methylpiperidin-1-yl)methanone]",6.01,7.92
"C[C@@H]1CC[C@@H](c2csc(C(C)(C)O)n2)CN1C(=O)c1ccccc1-n1ncnn1 [Example 29, (2-(2H-Tetrazol-2-yl)phenyl)((2R,5R)-5-(2-(2-hydroxypropan-2-yl)thiazol-4-yl)-2-methylpiperidin-1-yl)methanone]",–,7.82
